Structures can show the parent of a compound that is named as a salt. Where two headings read alike, the source gives them in different places.
How the values were obtained:
[1] = test system: mouse writhing; assay: mouse writhing assay (acetic acid induced); format: in vivo, mouse (albino male mice); conditions: for Percent Inhibition of Writhing: Table 4, dextropropoxyphene napsylate 40 mg/kg + saline p.o.; for ability to potentiate analgesic effect of dextropropoxyphene (in words): mouse, in vivo
Source text: Writhing, which is characterized by contraction of the abdominal musculature, extension of the hindlegs, and rotation of the trunk, was induced in albino male mice. The extent to which writhing is reduced following administration of a test compound is an indication of the analgesic activity of that compound.
Mice, weighing 18-24 grams, were fasted overnight and given the test compounds by gavage or subcutaneously. Writhing was then induced by the intraperitoneal administration of acetic acid (0.55 to 0.60 percent). Each treatment group consisted of five mice. The total number of writhes for the treatment group was determined during a 10-minute observation period starting five minutes after acetic acid administration.

[2] = administered alone (U.S. Pat. No. 4,035,511) or with morphine (U.S. Pat. No. 4,083,982); cited from earlier work
[3] = test system: monoamine uptake, especially serotonin; conditions: U.S. Pat. No. 4,313,896; cited from earlier work

## CCC(=O)O[C@](Cc1ccccc1)(c1ccccc1)[C@H](C)CN(C)C [Dextropropoxyphene Napsylate]
[1]; Mus musculus, po, 0.5 h, Table 3, saline pretreatment p.o. three hours prior, dextropropoxyphene napsylate p.o. 30 minutes prior to assessment, read-out: Inhibition of Mouse Writhing ED50
  ED50: 44.2 mg/kg
[1]; Mus musculus, po, 1 h, read-out: Inhibition of Mouse Writhing ED50
  ED50: 49.3 mg/kg
[1]; Mus musculus, po, 1 h, read-out: Percent Inhibition of Mouse Writhing
  inhibition at 10 mg/kg: 0%
[1]; Mus musculus, sc, 0.5 h, read-out: Induced Inhibition of Mouse Writhing ED50
  ED50: 9.95 mg/kg
[1]; 30 minutes after administration
  Percent Inhibition of Writhing: 40%
[1]; 60 minutes after administration
  Percent Inhibition of Writhing: 6%
[1]; 70 minutes after administration
  Percent Inhibition of Writhing: 10%
[1]; 120 minutes after administration
  Percent Inhibition of Writhing: 28%
[1]; 180 minutes after administration
  Percent Inhibition of Writhing: 5%
[1]; dextropropoxyphene napsylate 10 mg/kg p.o. alone, 60 minutes prior to assessment
  inhibition of mouse writhing (in words): no inhibition of the writhing
[1]; s.c., 30 minutes, 20 mg/kg fluoxetine hydrochloride s.c. concomitantly
  ED50 of dextropropoxyphene napsylate alone relative to that with fluoxetine hydrochloride: twice the amount needed

## CNCCC(Oc1ccc(C(F)(F)F)cc1)c1ccccc1 (stereo not shown) [Fluoxetine Hydrochloride]
[1]; fluoxetine hydrochloride alone, doses up to 160 mg/kg, 30-180 minutes before writhing was induced
  analgesic activity in mouse writhing test: devoid of analgesic activity

## CNCCC(Oc1ccc(C(F)(F)F)cc1)c1ccccc1 (stereo not shown) [Fluoxetine, 3-(4-trifluoromethylphenoxy)-N-methyl-3-phenylpropylamine]
[1]
  ability to potentiate analgesic effect of dextropropoxyphene (in words): potentiate the analgesic effect of dextropropoxyphene
[2]
  analgesic properties (in words): possess analgesic properties

## NCCC(Oc1ccc(C(F)(F)F)cc1)c1ccccc1 (stereo not shown) [Norfluoxetine, 3-(4-trifluoromethylphenoxy)-3-phenylpropylamine]
[1]
  ability to potentiate analgesic effect of dextropropoxyphene (in words): potentiate the analgesic effect of dextropropoxyphene
[3]
  monoamine uptake blockade (in words): block monoamine uptake, especially serotonin

— patent publication US4594358A, “Analgesic method” (Eli Lilly and Company, priority 1985, dated 1986)
